Results taken from patent publication US8575160B2, “Imidazole derivatives as aldosterone synthase inhibitors” (Novartis AG, priority 2009, dated 2013).

Assays:
[1] = biological target: T1, aldosterone synthase (CYP11B2) (Homo sapiens, UniProt P19099); test: cellular aldosterone production in NCI-H295R cells (aldosterone synthase inhibition); type: cell-based
T1 construct: host or cells: NCI-H295R
T1 sequence (P19099 25-503): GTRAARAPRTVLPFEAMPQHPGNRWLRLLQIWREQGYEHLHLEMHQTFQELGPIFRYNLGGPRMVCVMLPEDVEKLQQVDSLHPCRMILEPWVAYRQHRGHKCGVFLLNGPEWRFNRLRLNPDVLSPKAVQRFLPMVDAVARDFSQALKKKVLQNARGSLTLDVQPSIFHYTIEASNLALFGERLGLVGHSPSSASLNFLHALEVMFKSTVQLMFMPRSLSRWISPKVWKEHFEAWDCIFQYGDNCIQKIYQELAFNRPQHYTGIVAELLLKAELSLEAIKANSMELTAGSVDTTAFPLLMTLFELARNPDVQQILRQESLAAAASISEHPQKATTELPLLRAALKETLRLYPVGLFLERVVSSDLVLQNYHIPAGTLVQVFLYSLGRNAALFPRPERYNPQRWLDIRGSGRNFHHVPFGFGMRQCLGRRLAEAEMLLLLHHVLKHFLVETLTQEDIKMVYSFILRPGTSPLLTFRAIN
Text: In particular, the aldosterone synthase inhibitory activities in vitro can be determined by the following assay.
Human adrenocortical carcinoma NCI-H295R cell line was obtained from American Type Culture Collection (Manassas, Va.). Insulin/transferrin/selenium (ITS)-A supplement (100×), DMEM/F-12, antibiotic/antimycotic (100×), and fetal bovine serum (FBS) were purchased from Invitrogen (Carlsbad, Calif.). Anti-mouse PVT scintillation proximity assay (SPA) beads and NBS 96-well plates were obtained from GE Health Sciences (Piscataway, N.J.) and Corning (Acton, Mass.), respectively. Solid black 96-well flat bottom plates were purchased from Costar (Corning, N.Y.). Aldosterone and angiotensin (Ang II) were purchased from Sigma (St. Louis, Mo.). D[1,2,6,7-^3H(N)]aldosterone was acquired from PerkinElmer (Boston, Mass.). Nu-serum was a product of BD Biosciences (Franklin Lakes, N.J.).
For in vitro measurement of aldosterone activity, human adrenocortical carcinoma NCI-H295R cells are seeded in NBS 96-well plates at a density of 25,000 cells/well in 100 μl of a growth medium containing DMEM/F12 supplemented with 10% FCS, 2.5% Nu-serum, 1 μg ITS/ml, and 1× antibiotic/antimycotic. The medium is changed after culturing for 3 days at 37° C. under an atmosphere of 5% CO2/95% air. On the following day, cells are rinsed with 100 μl of phosphate-buffered saline (PBS) and incubated with 100 μl of treatment medium containing 1 μM Ang II and a compound at different concentrations in quadruplicate wells at 37° C. for 24 hr. At the end of incubation, 50 μl of medium is withdrawn from each well for measurement of aldosterone production by an SPA using mouse anti-aldosterone monoclonal antibodies.
Measurement of aldosterone activity can also be performed using a 96-well plate format. Each test sample is incubated with 0.02 μCi of D[1,2,6,7-^3H(N)]aldosterone and 0.3 μg of anti-aldosterone antibody in PBS containing 0.1% Triton X-100, 0.1% bovine serum albumin, and 12% glycerol in a total volume of 200 μl at room temperature for 1 hr. Anti-mouse PVT SPA beads (50 μl) are then added to each well and incubated overnight at room temperature prior to counting in a Microbeta plate counter. The amount of aldosterone in each sample is calculated by comparing with a standard curve generated using known quantities of the hormone.
(§1) Inhibition of the release of certain steroids can be used as a measure of the respective enzyme inhibition by the added test compounds. The dose-dependent inhibition of enzymic activity by a compound is calculated by means of an inhibition plot which is characterized by an IC50.
(§2) The IC50 values for active test compounds are ascertained by a simple linear regression analysis in order to construct inhibition plots without data weighting. The inhibition plot is calculated by fitting a 4-parameter logistic function to the raw data points using the least squares method. The equation of the 4-parameter logistic function is calculated as follows: Y=(d−a)/((1+(x/c)b))+a, where: a=minimum data level, b=gradient, I […], d=maximum data level, x=inhibitor concentration.

CYP11B1 = biological target: T2, CYP11B1 (Homo sapiens, UniProt P15538); test: cellular cortisol production in NCI-H295R cells (CYP11B1 inhibition); type: cell-based
T2 construct: the NCI-H295R cells have CYP11 B1 (steroid 11 β-hydroxylase); host or cells: NCI-H295R
T2 sequence (P15538 25-503): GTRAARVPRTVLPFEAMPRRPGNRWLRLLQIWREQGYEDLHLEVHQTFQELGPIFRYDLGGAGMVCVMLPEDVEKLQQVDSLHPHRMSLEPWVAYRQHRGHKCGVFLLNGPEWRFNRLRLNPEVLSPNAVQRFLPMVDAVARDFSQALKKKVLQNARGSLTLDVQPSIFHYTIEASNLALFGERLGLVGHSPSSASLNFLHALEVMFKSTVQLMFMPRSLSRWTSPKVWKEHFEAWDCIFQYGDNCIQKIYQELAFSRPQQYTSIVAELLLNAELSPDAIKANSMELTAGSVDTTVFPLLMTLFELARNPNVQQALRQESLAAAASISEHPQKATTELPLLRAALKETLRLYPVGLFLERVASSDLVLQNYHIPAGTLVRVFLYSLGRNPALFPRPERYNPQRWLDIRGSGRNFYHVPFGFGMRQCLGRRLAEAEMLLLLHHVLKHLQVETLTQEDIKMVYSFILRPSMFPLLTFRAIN
Text: The in vitro inhibitory activities for CYP11B1 can be determined by the following assay.
The cell line NCI-H295R was originally isolated from an adrenocortical carcinoma and has been characterized in the literature through the stimulable secretion of steroid hormones and the presence of the enymes essential for steroidogenesis. Thus, the NCI-H295R cells have CYP11 B1 (steroid 11 β-hydroxylase). The cells show the physiological property of zonally undifferentiated human foetal adrenocortical cells which, however, have the capacity to produce the steroid hormones which are formed in the three, phenotypically distinguishable zones in the adult adrenal cortex.
The NCI-H295R cells (American Type Culture Collection, ATCC, Rockville, Md., USA) are grown in Dulbeoco's Modified Eagle'Ham F-12 Medium (DME/F12), which has been supplemented with Ulroser SF Serum (Soprachem, Cergy-Saint-Christophe, France), insulin, transferrin, selenite (I-T-S, Becton Dickinson Biosiences, Franklin lakes, NJ, USA) and antibiotics in 75 cm^2 cell culture vessels at 37° C. and in a 95% air-5% carbon dioxide atmosphere. The cells are subsequently transferred for colony formation into a 24-well incubation vessel. They are cultivated there in DME/F12 medium, which is now supplemented with 0.1% bovine serum instead of Ultroser SF for 24 hours. The experiment is initiated by cultivating the cells in DME/F12 medium which is supplemented with 0.1% bovine serum albumin and test compound, in the presence or absence of cell stimulants, for 72 hours. The test substance is added in a concentration range from 0.2 nanomolar to […]. Cell stimulants which can be used are angiotensin 11 (1 D or 100 nanomolar), potassium ions (16 millimolar), forskolin (10 micromolar) or a combination of two stimulants.
The excretion of aldosterone, cortisol, corticosterone and estradiol/estrone into the culture medium can be detected and quantified by commercially available, specific monoclonal antibodies in radioimmunoassays in accordance with the manufacturer's instructions.
as §1, §2

## Cc1ccc([C@@]2(O)C[C@H](c3ccc(C#N)cc3F)n3cncc32)cc1C [Example 1-4, 4-((5R,7S)-7-(3,4-dimethylphenyl)-7-hydroxy-6,7-dihydro-5H-pyrrolo[1,2-c]imidazol-5-yl)-3-fluorobenzonitrile]
[1]
  IC50: 5 nM
CYP11B1
  IC50: 480 nM

## N#Cc1ccc([C@H]2CC[C@](O)(c3ccc(-c4ccccc4)cc3)c3cncn32)cc1 [Example 1-41]
[1]
  IC50: 72 nM
CYP11B1
  IC50: 135 nM

## N#Cc1ccc([C@H]2C[C@](O)(C#CC3CC3)c3cncn32)c(F)c1 [Example 1-52, 4-((5R,7S)-7-(cyclopropylethynyl)-7-hydroxy-6,7-dihydro-6H-pyrrolo[1,2-c]imidazol-5-yl)-3-fluorobenzonitrile]
[1]
  IC50: 142 nM
CYP11B1
  IC50: 273 nM

## COc1cc(-c2cccc([C@@]3(O)C[C@H](c4ccc(C#N)cc4F)n4cncc43)c2)ccn1 [Example 2-10]
[1]
  IC50: 6 nM
CYP11B1
  IC50: 338 nM

## CCc1ccc([C@@]2(O)C[C@H](c3ccc(C#N)cc3F)n3cncc32)cc1 [Example 1-32]
[1]
  IC50: 6 nM
CYP11B1
  IC50: 645 nM

## Cc1cc(-c2ccc([C@@]3(O)C[C@H](c4ccc(C#N)cc4F)n4cncc43)cc2)ccn1 [Example 3-14]
[1]
  IC50: 64 nM
CYP11B1
  IC50: 10200 nM

## N#Cc1ccc([C@H]2C[C@@](O)(c3ccc4ccccc4c3)c3cncn32)c(F)c1 [Example 1-17]
[1]
  IC50: 1 nM
CYP11B1
  IC50: 14 nM

## Cn1c([C@@]2(O)C[C@H](c3ccc(C#N)cc3F)n3cncc32)cc2ccccc21 [Example 1-50]
[1]
  IC50: 7 nM
CYP11B1
  IC50: 1800 nM

## CC1(C)[C@H](c2ccc(C#N)cc2F)n2cncc2[C@@]1(O)c1ccc(F)cc1 [Example 1-53, 3-fluoro-4-((5R,7R)-7-(4-fluorophenyl)-7-hydroxy-6,6-dimethyl-6,7-dihydro-5H-pyrrolo[1,2-c]imidazol-5-yl)benzonitrile]
[1]
  IC50: 42 nM
CYP11B1
  IC50: 220 nM

## N#Cc1ccc([C@H]2C[C@](O)(c3ccc4c(c3)OCO4)c3cncn32)c(F)c1 [Example 1-13]
[1]
  IC50: 34 nM
CYP11B1
  IC50: 103 nM

## N#Cc1ccc([C@H]2C[C@](O)(c3ccc4ccccc4c3)c3cncn32)c(F)c1 [Example 1-16]
[1]
  IC50: 2 nM
CYP11B1
  IC50: 143 nM

## N#Cc1ccc([C@H]2C[C@](O)(CCc3ccccc3)c3cncn32)c(F)c1 [Example 1-12]
[1]
  IC50: 2 nM
CYP11B1
  IC50: 6 nM

## N#Cc1ccc([C@H]2C[C@](O)(c3cccc(-c4ccc(F)cc4)c3)c3cncn32)c(F)c1 [Example 1-30]
[1]
  IC50: 25 nM
CYP11B1
  IC50: 522 nM

## N#Cc1ccc([C@H]2C[C@](O)(CC(=O)Nc3cccc(OC(F)(F)F)c3)c3cncn32)c(F)c1 [Example 4-15]
[1]
  IC50: 72 nM
CYP11B1
  IC50: 8780 nM

## N#Cc1ccc([C@H]2C[C@](O)(c3cccc(C4CC4)c3)c3cncn32)c(F)c1 [Example 1-2, 4-((5R,7S)-7-(3-cyclopropylphenyl)-7-hydroxy-6,7-dihydro-5H-pyrrolo[1,2-c]imidazol-5-yl)-3-fluorobenzonitrile]
[1]
  IC50: 27 nM
CYP11B1
  IC50: 84 nM

## C=C[C@@]1(O)C[C@H](c2ccc(C#N)cc2F)n2cncc21 [Example 1-1, 3-fluoro-4-((5R,7S)-7-hydroxy-7-vinyl-6,7-dihydro-5H-pyrrolo[1,2-c]imidazol-5-yl)benzonitrile]
[1]
  IC50: 11 nM
CYP11B1
  IC50: 472 nM
